Patent US8252723B2, “Substituted 1-(3-pyridinyl)pyrazol-4-ylacetic acids, processes for their preparation and their use as herbicides and plant growth regulators” (Bayer CropScience AG, priority 2006, dated 2012)

Tested on: summer wheat of the cultivar 'Triso'
Assay: Plant growth regulation test: culm stabilization of crop plants
Assay type: in vivo
Details: application rate of 30 to 300 g of active substance per hectare, treated at stage BBCH 31, culm length measured after ears had formed
Method in brief: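 Wettable-powder formulation with adjuvant (1 l/ha) sprayed at 300 l water/ha onto pot-grown plants at BBCH 31, then kept outdoors. After ear formation culm length was measured; culm stabilization is expressed as percent of untreated control.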

Row | Compound | longitudinal growth (culm length) of summer wheat
1 | COC(=O)Cc1c(C)nn(-c2cnccc2C)c1-c1ccc(F)cc1 [Example 2-37] | effectively shortened
2 | COC(=O)Cc1c(C)nn(-c2cccnc2)c1-c1ccc(Cl)c(Cl)c1 [Example 2-27] | effectively shortened
3 | COC(=O)Cc1c(C)nn(-c2cnccc2C)c1-c1ccc(Cl)c(C(F)(F)F)c1 [Example 2-48] | effectively shortened
4 | C=C(Cl)COC(=O)Cc1c(C)nn(-c2cccnc2)c1-c1ccc(Cl)s1 [Example 3-190] | effectively shortened
5 | COC(=O)Cc1c(C)nn(-c2cnccc2C)c1-c1sccc1C [Example 2-53] | effectively shortened
6 | Cc1ccncc1-n1nc(C)c(CC(=O)O)c1-c1ccccn1 [Example 1-132] | effectively shortened
7 | Cc1nn(-c2cccnc2)c(-c2ccc(C(=O)O)cc2)c1CC(=O)O [Example 1-42] | effectively shortened
8 | Cc1csc(-c2c(CC(=O)O)c(C)nn2-c2cnccc2C)c1 [Example 1-54] | effectively shortened
9 | Cc1cc(C)cc(-c2c(CC(=O)O)c(C)nn2-c2cccnc2)c1 [Example 1-43] | effectively shortened
10 | CC#CCOC(=O)Cc1c(C)nn(-c2cnccc2C)c1-c1ccccc1 [Example 3-139] | effectively shortened
11 | CC(C)=CCOC(=O)Cc1c(C)nn(-c2cccnc2)c1-c1ccccc1 [Example 3-152] | effectively shortened
12 | C#CCOC(=O)Cc1c(C)nn(-c2cnccc2C)c1-c1ccc(Cl)cc1 [Example 3-75] | effectively shortened
13 | C=CCOC(=O)Cc1c(C)nn(-c2cccnc2)c1-c1ccccc1 [Example 3-148] | effectively shortened
14 | Cc1nn(-c2cccnc2)c(-c2ccccc2)c1CC(=O)OCC(F)=C(Cl)Cl [Example 3-101] | effectively shortened
15 | C/C=C/C(C)OC(=O)Cc1c(C)nn(-c2cccnc2)c1-c1ccccc1 (centres unmarked) [Example 3-160] | effectively shortened
16 | Cc1nn(-c2cccnc2)c(-c2ccc(Cl)c(C(F)(F)F)c2)c1CC(=O)O [Example 1-47] | effectively shortened
17 | C=C(Cl)COC(=O)Cc1cnn(-c2cccnc2)c1-c1ccccc1 [Example 3-207] | effectively shortened
18 | COC(=O)Cc1c(C)nn(-c2cnccc2C)c1-c1cc(C)cs1 [Example 2-54] | effectively shortened
19 | COC(=O)Cc1c(C)nn(-c2cccnc2)c1-c1ccc(OC)nc1 [Example 2-62] | effectively shortened
20 | C#CCOC(=O)Cc1c(C)nn(-c2cccnc2)c1-c1ccc(Cl)cc1 [Example 3-55] | effectively shortened
21 | Cc1nn(-c2cccnc2)c(-c2ccc(Cl)cc2)c1CC(=O)OCC1CCCCC1 [Example 3-177] | effectively shortened

Row | Compound | longitudinal growth (culm length) of summer wheat
22 | Cc1nn(-c2cccnc2)c(-c2ccsc2)c1CC(=O)O [Example 1-63] | effectively shortened
23 | COC(=O)Cc1c(C)nn(-c2cnccc2C)c1-c1cc(Cl)cc(Cl)c1 [Example 2-68] | effectively shortened
24 | Cc1nn(-c2cccnc2)c(-c2ccccn2)c1CC(=O)OC(C)C [Example 3-48] | effectively shortened
25 | COC(=O)Cc1c(C)nn(-c2cccnc2)c1-c1ccc(C)c(Cl)c1 [Example 2-46] | effectively shortened
26 | COC(=O)Cc1c(C)nn(-c2cnccc2C)c1-c1cccc(C)c1 [Example 2-38] | effectively shortened
27 | COC(=O)Cc1c(C)nn(-c2cnccc2C)c1-c1ccc(Cl)s1 [Example 2-55] | effectively shortened
28 | Cc1nn(-c2ccc(C(F)(F)F)nc2)c(-c2ccccc2)c1CC(=O)O [Example 1-9] | effectively shortened
29 | Cc1ccsc1-c1c(CC(=O)O)c(C)nn1-c1cccnc1 [Example 1-58] | effectively shortened
30 | COC(=O)Cc1c(C)nn(-c2cccnc2)c1-c1ccc(C(C)=O)cc1 [Example 2-121] | effectively shortened
31 | COC(=O)Cc1c(C)nn(-c2cnccc2C)c1-c1cccs1 [Example 2-52] | effectively shortened
32 | COC(=O)Cc1c(C)nn(-c2cccnc2)c1-c1ccc(C)cn1 [Example 2-113] | effectively shortened
33 | COC(=O)Cc1c(C)nn(-c2cnccc2C)c1-c1ccc(C(F)(F)F)cc1 [Example 2-24] | effectively shortened
34 | COC(=O)Cc1c(C)nn(-c2cccnc2)c1-c1ccc(F)cc1 [Example 2-120] | effectively shortened
35 | Cc1nn(-c2cccnc2)c(-c2ccccn2)c1CC(=O)O [Example 1-109] | effectively shortened
36 | Cc1ccncc1-n1nc(C)c(CC(=O)O)c1-c1ccc(C(F)(F)F)cc1 [Example 1-24] | effectively shortened
37 | C=C(Cl)COC(=O)Cc1c(C)nn(-c2cccnc2)c1-c1ccccc1 [Example 3-184] | effectively shortened
38 | CC#CCOC(=O)Cc1c(C)nn(-c2cccnc2)c1-c1ccccc1 [Example 3-117] | effectively shortened
39 | COC(=O)Cc1c(C)nn(-c2cncc(C)c2)c1-c1ccccc1 [Example 2-50] | effectively shortened
40 | COC(=O)Cc1c(C)nn(-c2cnccc2[S+](C)[O-])c1-c1ccccc1 (centres unmarked) [Example 2-71] | effectively shortened
41 | Cc1ccncc1-n1nc(C)c(CC(=O)O)c1-c1cccs1 [Example 1-52] | effectively shortened
42 | Cc1ccc(-c2c(CC(=O)O)c(C)nn2-c2cnccc2C)cc1 [Example 1-36] | effectively shortened

Row | Compound | longitudinal growth (culm length) of summer wheat
43 | COC(=O)Cc1c(C)nn(-c2cnccc2C)c1-c1ccccc1Cl [Example 2-22] | effectively shortened
44 | CCCOC(=O)Cc1c(C)nn(-c2cccnc2)c1-c1ccccn1 [Example 3-34] | effectively shortened
45 | Cc1nn(-c2cccnc2)c(-c2ccc(Cl)cc2)c1CC(=O)OCCN(C)C [Example 3-231] | effectively shortened
46 | Cc1cc(C)cc(-c2c(CC(=O)O)c(C)nn2-c2cnccc2C)c1 [Example 1-33] | effectively shortened
47 | COC(=O)Cc1c(C)nn(-c2cnccc2SC)c1-c1ccccc1 [Example 2-44] | effectively shortened
48 | C=CCCOC(=O)Cc1c(C)nn(-c2cccnc2)c1-c1ccccc1 [Example 3-180] | effectively shortened
49 | Cc1cncc(-n2nc(C)c(CC(=O)O)c2-c2ccc(Cl)cc2)c1 [Example 1-51] | effectively shortened
50 | COC(=O)Cc1c(C)nn(-c2ccc(Cl)nc2Cl)c1-c1ccccc1 [Example 2-12] | effectively shortened
51 | Cc1nn(-c2cccnc2)c(-c2ccc(Cl)cc2)c1CC(=O)O [Example 1-26] | effectively shortened
52 | COC(=O)Cc1c(C)nn(-c2cccnc2)c1-c1ccc(Cl)nc1 [Example 2-134] | effectively shortened
53 | Cc1ccc(-c2c(CC(=O)O)c(C)nn2-c2cccnc2)cc1 [Example 1-16] | effectively shortened
54 | COC(=O)Cc1c(-c2ccccc2)nn(-c2cccnc2)c1-c1ccccc1 [Example 2-1] | effectively shortened
55 | COC(=O)Cc1c(C=O)nn(-c2cccnc2)c1-c1ccc(Cl)cc1 [Example 2-165] | effectively shortened
56 | COC(=O)Cc1c(C)nn(-c2cccnc2)c1-c1ccc(C(F)(F)F)cn1 [Example 2-144] | effectively shortened
57 | COc1cccc(-c2c(CC(=O)O)c(C)nn2-c2cccnc2)n1 [Example 1-145] | effectively shortened
58 | COC(=O)Cc1c(C)nn(-c2cnccc2C)c1-c1cccc(Cl)c1Cl [Example 2-131] | effectively shortened
59 | Cc1nn(-c2cccnc2)c(-c2ccc(Cl)cn2)c1CC(=O)O [Example 1-110] | effectively shortened
60 | C=C(Cl)COC(=O)Cc1c(C)nn(-c2cccnc2)c1-c1ccc(C)s1 [Example 3-191] | effectively shortened
61 | COC(=O)Cc1c(C)nn(-c2cccnc2)c1-c1cccc(OC)n1 [Example 2-145] | effectively shortened
62 | COC(=O)Cc1c(C)nn(-c2cnccc2C)c1-c1ccc(C)c(C)c1 [Example 2-116] | effectively shortened
